Assay [1] has as its system Nakaseomyces glabratus. The assay is described as follows: Antifungal activity against Candida glabrata IFO 0622 after 24 hrs by microdilution method. The format is functional. The following applies: IFO 0622, 24 h.
The test system of assay [2] is Aspergillus fumigatus. Kind of assay: Antifungal activity against Aspergillus fumigatus ATCC 36607 after 24 hrs by microdilution method. In kind it is functional. The following applies: ATCC 36607, 24 h. (In general: Dilution methods test growth across graded concentrations, often in twofold steps.)
Assay [3] relates to Candida tropicalis. Kind of assay: Antifungal activity against Candida tropicalis TIMM 0313 after 24 hrs by microdilution method. In kind it is functional. To be noted: TIMM 0313, 24 h.
Assay [4] has as its system Pichia kudriavzevii. The assay is described as follows: Antifungal activity against Candida krusei TIMM 0269 after 24 hrs by microdilution method. In kind it is functional. The following applies: TIMM 0269, 24 h.
Assay [5] relates to Candida albicans. The assay is described as follows: Antifungal activity against Candida albicans ATCC 24433 after 24 hrs by microdilution method. The format is functional. The following applies: ATCC 24433, 24 h.
Assay [6] relates to Candida tropicalis. Kind of assay: Antifungal activity against Candida tropicalis TIMM 0313 assessed as inhibition of beta-1,6-glucan synthesis. In kind it is functional, organism-based.
Assay [7] has as its system Aspergillus fumigatus. Kind of assay: Antifungal activity against Aspergillus fumigatus ATCC 36607 assessed as inhibition of beta-1,6-glucan synthesis. In kind it is functional, organism-based.
Assay [8] has as its system Nakaseomyces glabratus. Kind of assay: Antifungal activity against Candida glabrata IFO 0622 assessed as inhibition of beta-1,6-glucan synthesis. The format is functional, organism-based.
The test system of assay [9] is Candida albicans. The assay is described as follows: Antifungal activity against Candida albicans ATCC 24433 assessed as inhibition of beta-1,6-glucan synthesis. The format is functional, organism-based.
The subject of assay [10] is Pichia kudriavzevii. The assay is described as follows: Antifungal activity against Candida krusei TIMM 0269 assessed as inhibition of beta-1,6-glucan synthesis. The format is functional, organism-based.

Converted amounts (≈) assume the structure as drawn. The source made the active and inactive calls. The rule behind the calls is not given here.

By MIC is commonly meant the lowest concentration found to suppress growth. With `CCc1c(C)c(C#N)c2nc3ccccc3n2c1NCCN`, the MIC is 4 µg/mL (≈ 13.6 µM) in assay [1]; greater than 128 µg/mL in [2]; greater than 128 µg/mL in assay [3]; 32 µg/mL (≈ 109 µM) in [4]; greater than 128 µg/mL in [5].
In the case of `CCCCc1c(C)c(C#N)c2nc3ccccc3n2c1N1CC[C@H](N(C)C)C1`, the MIC in assay [1] is no more than 0.125 µg/mL; in assay [2], greater than 128 µg/mL; in assay [3], 0.5 µg/mL (≈ 1.33 µM); in [4] it was 0.5 µg/mL (≈ 1.33 µM); in [5], greater than 128 µg/mL.
`Cc1c(CCO)c(N2CC[C@H](N(C)C)C2)n2c(nc3ccccc32)c1C#N`: the MIC is 32 µg/mL (≈ 88 µM) in assay [1]; greater than 128 µg/mL in assay [2]; greater than 128 µg/mL in assay [3]; 16 µg/mL (≈ 44 µM) in assay [4]; greater than 128 µg/mL in assay [5].
As for `CN(C)[C@H]1CCN(c2c(-c3ccccc3)cc(C#N)c3nc4ccccc4n23)C1`, the MIC in [1] is no more than 0.125 µg/mL; in assay [2] it was greater than 128 µg/mL; in [3] it was 8 µg/mL (≈ 21 µM); in [4], 2 µg/mL (≈ 5.24 µM); in assay [5] it was greater than 128 µg/mL.
Consider `Cc1c(-c2ccccc2)c(N2CC[C@H](N(C)C)C2)n2c(nc3ccccc32)c1C#N`, for which the MIC in assay [1] was no more than 0.125 µg/mL; in [2], greater than 128 µg/mL; in assay [3], 0.5 µg/mL (≈ 1.26 µM); in [4], no more than 0.125 µg/mL; in assay [5], greater than 128 µg/mL. For the same molecule, the inhibition entry in assay [6], in [7], in assay [8], in assay [9] and in [10] was “Active” throughout.
On to `CCc1c(C)c(C#N)c2nc3ccccc3n2c1N1CCN(C)CC1`, for which the MIC in assay [1], in assay [2], in assay [3], in [4] and in assay [5] was greater than 32 µg/mL throughout.
Turning to `CCc1c(C)c(C#N)c2nc3ccccc3n2c1N1CC[C@H](N(C)C)C1`, the MIC in [1] was 0.5 µg/mL (≈ 1.44 µM); in assay [2], greater than 128 µg/mL; in assay [3], 32 µg/mL (≈ 92.1 µM); in [4], 2 µg/mL (≈ 5.76 µM); in assay [5] it was greater than 128 µg/mL.
As to `CCc1c(-c2ccccc2)c(C#N)c2nc3ccccc3n2c1N1CC[C@H](N(C)C)C1`, the MIC in assay [1], in assay [2], in assay [3], in [4] and in assay [5] was greater than 128 µg/mL in each case.
On to `Cc1c(F)c(N2CC[C@H](N(C)C)C2)n2c(nc3ccccc32)c1C#N`, for which the MIC is 4 µg/mL (≈ 11.9 µM) in assay [1]; greater than 128 µg/mL in assay [2]; greater than 128 µg/mL in assay [3]; 16 µg/mL (≈ 47.4 µM) in [4]; greater than 128 µg/mL in assay [5].
Take `CCc1c(C)c(C#N)c2nc3ccccc3n2c1NCCCN(C)C`: the MIC in assay [1], in assay [2], in assay [3], in assay [4] and in assay [5] was greater than 128 µg/mL in each case.
For `CCc1c(C)c(C#N)c2nc3ccccc3n2c1N1CCC(N(C)C)CC1`, the MIC in assay [1], in assay [2], in assay [3], in [4] and in [5] was greater than 128 µg/mL in each case.
On to `CCc1c(C)c(C#N)c2nc3ccccc3n2c1N1CC[C@@H](N(C)C)C1`, for which the MIC is 1 µg/mL (≈ 2.88 µM) in assay [1]; greater than 128 µg/mL in [2]; 64 µg/mL (≈ 184 µM) in assay [3]; 16 µg/mL (≈ 46 µM) in [4]; greater than 128 µg/mL in assay [5].
Regarding `Cc1cc(N2CC[C@H](N(C)C)C2)n2c(nc3ccccc32)c1C#N`, the MIC in [1] is 8 µg/mL (≈ 25 µM); in assay [2] it was greater than 128 µg/mL; in assay [3] it was greater than 128 µg/mL; in assay [4], 32 µg/mL (≈ 100 µM); in assay [5] it was greater than 128 µg/mL.
As to `CC(=O)OCCc1c(C)c(C#N)c2nc3ccccc3n2c1N1CC[C@H](N(C)C)C1`, the MIC in assay [1] was 1 µg/mL (≈ 2.47 µM); in assay [2], greater than 128 µg/mL; in assay [3], 16 µg/mL (≈ 39.5 µM); in assay [4] it was 4 µg/mL (≈ 9.86 µM); in assay [5], greater than 128 µg/mL.
Regarding `CCc1c(C)c(C#N)c2nc3ccccc3n2c1NCCN(CC)CC`, the MIC was 1 µg/mL (≈ 2.86 µM) in [1]; greater than 128 µg/mL in assay [2]; greater than 128 µg/mL in assay [3]; 4 µg/mL (≈ 11.4 µM) in [4]; greater than 128 µg/mL in [5].
As for `OC(Cn1cncn1)(Cn1cncn1)c1ccc(F)cc1F` [FLUCONAZOLE], the MIC in assay [1] is 2 µg/mL (≈ 6.53 µM); in assay [2], greater than 64 µg/mL; in assay [3] it was 0.25 µg/mL (≈ 0.816 µM); in [4], 16 µg/mL (≈ 52.2 µM); in [5], 0.25 µg/mL (≈ 0.816 µM).
Regarding `CCc1c(C)c(C(N)=O)c2nc3ccccc3n2c1NCCN(C)CC`, the MIC in assay [1], in assay [2], in assay [3], in assay [4] and in assay [5] was greater than 128 µg/mL throughout.
In the case of `CCCNc1c(CC)c(C)c(C#N)c2nc3ccccc3n12`, the MIC in assay [1], in assay [2], in assay [3], in assay [4] and in [5] was greater than 128 µg/mL each time.
Turning to `CCc1c(C)c(C#N)c2nc3ccccc3n2c1N1CCCC1`, the MIC in assay [1], in assay [2], in [3], in [4] and in [5] was greater than 64 µg/mL in each case.

(Values after ChEMBL document CHEMBL1177777, “Novel pyridobenzimidazole derivatives exhibiting antifungal activity by the inhibition of beta-1,6-glucan synthesis” (2010).)
